The target of this assay is T1, LXRβ (Homo sapiens, UniProt P55055).
T1 construct: Co-transfection expression plasmids, comprising full-length LXRα (pCMX-h LXRα[…] or LXRβ (pCMX-hLXRβ)); expressed in transfected cells; host or cells: CV-1 African Green Monkey Kidney Cells
T1 sequence (P55055 1-460): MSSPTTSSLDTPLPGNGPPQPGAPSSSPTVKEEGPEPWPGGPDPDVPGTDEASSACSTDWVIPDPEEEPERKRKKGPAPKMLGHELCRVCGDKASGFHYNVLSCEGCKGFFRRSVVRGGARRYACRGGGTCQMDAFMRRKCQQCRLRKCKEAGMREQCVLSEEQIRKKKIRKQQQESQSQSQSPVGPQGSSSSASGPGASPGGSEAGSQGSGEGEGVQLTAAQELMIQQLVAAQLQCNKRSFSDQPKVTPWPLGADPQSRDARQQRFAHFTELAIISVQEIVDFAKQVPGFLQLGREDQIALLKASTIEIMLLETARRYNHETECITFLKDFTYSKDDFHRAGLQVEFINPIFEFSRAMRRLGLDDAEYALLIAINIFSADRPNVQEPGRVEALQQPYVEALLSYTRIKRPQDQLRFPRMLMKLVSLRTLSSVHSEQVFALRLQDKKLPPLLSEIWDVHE
T1 sequence (P19793 1-462 partner): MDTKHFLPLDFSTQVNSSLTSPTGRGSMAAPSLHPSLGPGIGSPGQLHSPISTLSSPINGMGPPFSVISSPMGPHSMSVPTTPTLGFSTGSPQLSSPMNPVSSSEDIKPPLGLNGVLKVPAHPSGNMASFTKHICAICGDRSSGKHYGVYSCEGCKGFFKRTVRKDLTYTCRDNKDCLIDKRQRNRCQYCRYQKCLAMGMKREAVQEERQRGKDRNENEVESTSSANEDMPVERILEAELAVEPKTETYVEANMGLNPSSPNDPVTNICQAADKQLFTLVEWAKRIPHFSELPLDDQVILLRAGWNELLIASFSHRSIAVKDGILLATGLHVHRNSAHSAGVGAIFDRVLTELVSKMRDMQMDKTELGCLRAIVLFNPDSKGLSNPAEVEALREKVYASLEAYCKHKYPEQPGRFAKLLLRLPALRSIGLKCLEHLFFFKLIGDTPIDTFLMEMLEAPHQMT
Kind of assay: Co-transfection assay (LXRE luciferase reporter), LXRβ. It counts as cell-based. As to conditions: for EC50: CV-1 cells transfected with pCMX-hLXRβ and LXREx1-Tk-Luciferase, 20 hours incubation; for Emax: LXRβ co-transfection, relative to high control 1-(2,4-difluorobenzyl)-2-oxo-6-(4-phenoxyphenyl)-4-(trifluoromethyl)-1,2-dihydropyridine-3-carbonitrile, read-out: % Efficacy. The essentials: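 Luciferase signal from an LXREx1-Tk reporter was measured after transfected CV-1 cells (full-length hLXRβ, endogenous RXR) were treated with compounds for 20 h at 37 °C, ≤0.5% DMSO. EC50 came from four-parameter fits of 11-point ½-log curves; % efficacy versus a reference agonist maximum.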

Broadly, the EC50 is the concentration at which the effect is half-maximal. Read a low EC50 as a more potent agent. For the compound `Cc1nc(-c2cc(-c3cc(F)c(CO)c(S(C)(=O)=O)c3)ccc2-n2cc(C(F)(F)F)nc2C)c(-c2ccc3c(c2)OC(F)(F)O3)o1` [Example 494, (3′-(5-(2,2-difluorobenzo[d][1,3]dioxol-5-yl)-2-methyloxazol-4-yl)-3-fluoro-4′-(2-methyl-4-(trifluoromethyl)-1H-imidazol-1-yl)-5-(methylsulfonyl)biphenyl-4-yl)methanol], the concentration for a half-maximal effect (EC50) is 47 nM and the Emax was found to be 90%.

For the compound `Cc1nc(-c2cc(-c3cccc(S(C)(=O)=O)c3)ccc2-n2cc(C(F)(F)F)nc2C)c(-c2ccc(OC(F)F)cc2)o1` [Example 495, 5-(4-(difluoromethoxy)phenyl)-2-methyl-4-(4-(2-methyl-4-(trifluoromethyl)-1H-imidazol-1-yl)-3′-(methylsulfonyl)biphenyl-3-yl)oxazole], the response was half-maximal at 71 nM (EC50) and the Emax turned out to be 108%.

As for `Cc1nc(-c2cc(-c3cc(F)c(CO)c(S(C)(=O)=O)c3)ccc2-n2cc(C(F)(F)F)nc2C)c(-c2ccc(OC(F)F)cc2)o1` [Example 496, (3′-(5-(4-(difluoromethoxy)phenyl)-2-methyloxazol-4-yl)-3-fluoro-4′-(2-methyl-4-(trifluoromethyl)-1H-imidazol-1-yl)-5-(methylsulfonyl)biphenyl-4-yl)methanol], the EC50 worked out at 48 nM and the Emax worked out at 116%.

Consider `Cc1nc(-c2cc(-c3ccc(CO)c(S(C)(=O)=O)c3)ccc2-n2cc(C(F)(F)F)nc2C)c(-c2ccc(OC(F)F)cc2)o1` [Example 497, (3′-(5-(4-(difluoromethoxy)phenyl)-2-methyloxazol-4-yl)-4′-(2-methyl-4-(trifluoromethyl)-1H-imidazol-1-yl)-3-(methylsulfonyl)biphenyl-4-yl)methanol], for which the EC50 stood at 88 nM and the Emax was determined as 124%.

As for `Cc1nc(-c2cc(-c3cccc(S(C)(=O)=O)c3)ccc2-n2cc(C(F)(F)F)nc2C)c(-c2ccc(Cl)c(F)c2)o1` [Example 498, 5-(4-chloro-3-fluorophenyl)-2-methyl-4-(4-(2-methyl-4-(trifluoromethyl)-1H-imidazol-1-yl)-3′-(methylsulfonyl)biphenyl-3-yl)oxazole], the concentration giving a half-maximal response (EC50) was 87 nM and the Emax stood at 76%.

For `Cc1nc(-c2cc(-c3cc(F)c(CO)c(S(C)(=O)=O)c3)ccc2-n2cc(C(F)(F)F)nc2C)c(-c2ccc(Cl)c(F)c2)o1` [Example 499, (3′-(5-(4-chloro-3-fluorophenyl)-2-methyloxazol-4-yl)-3-fluoro-4′-(2-methyl-4-(trifluoromethyl)-1H-imidazol-1-yl)-5-(methylsulfonyl)biphenyl-4-yl)methanol], a half-maximal effect (EC50) was put at 50 nM and the Emax came out at 74%.

Regarding `Cc1nc(-c2cc(-c3cccc(S(C)(=O)=O)c3)ccc2-n2cc(C(F)(F)F)nc2C)c(-c2ccc(N(C)C)cc2)o1` [Example 500, N,N-dimethyl-4-(2-methyl-4-(4-(2-methyl-4-(trifluoromethyl)-1H-imidazol-1-yl)-3′-(methylsulfonyl)biphenyl-3-yl)oxazol-5-yl)aniline], the concentration giving a half-maximal response (EC50) was 85 nM and the Emax was found to be 96%.

As for `Cc1nc(-c2cc(-c3cc(F)c(CO)c(S(C)(=O)=O)c3)ccc2-n2cc(C(F)(F)F)nc2C)c(-c2ccc(N3CCCC3=O)cc2)o1` [Example 501], the EC50 turned out to be 1620 nM and the Emax worked out at 38%.

As to `Cc1nc(-c2cc(-c3cccc(S(C)(=O)=O)c3)ccc2-n2cc(C(F)(F)F)nc2C)c(-c2ccc(N3CCCC3=O)cc2)o1` [Example 502, 1-(4-(2-methyl-4-(4-(2-methyl-4-(trifluoromethyl)-1H-imidazol-1-yl)-3′-(methylsulfonyl)biphenyl-3-yl)oxazol-5-yl)phenyl)pyrrolidin-2-one], the response was half-maximal at 1250 nM (EC50) and the Emax was 37%.

On to `Cc1nc(-c2cc(-c3cc(F)c(CO)c(S(C)(=O)=O)c3)ccc2-n2cc(C(F)(F)F)nc2C)c(-c2ccc(C)c(F)c2)o1` [Example 503, (3-fluoro-3′-(5-(3-fluoro-4-methylphenyl)-2-methyloxazol-4-yl)-4′-(2-methyl-4-(trifluoromethyl)-1H-imidazol-1-yl)-5-(methylsulfonyl)biphenyl-4-yl)methanol], for which a half-maximal effect (EC50) was put at 45 nM and the Emax came to 71%.

Turning to `Cc1nc(-c2cc(-c3cccc(S(C)(=O)=O)c3)ccc2-n2cc(C(F)(F)F)nc2C)c(-c2ccc(C)c(F)c2)o1` [Example 504, 5-(3-fluoro-4-methylphenyl)-2-methyl-4-(4-(2-methyl-4-(trifluoromethyl)-1H-imidazol-1-yl)-3′-(methylsulfonyl)biphenyl-3-yl)oxazole], a half-maximal effect (EC50) was put at 91 nM and the Emax was found to be 77%.

`Cc1nc(-c2cc(-c3cccc(S(C)(=O)=O)c3)ccc2-n2cc(C(F)(F)F)nc2C)c(-c2ccc(F)cc2)o1` [Example 505, 5-(4-fluorophenyl)-2-methyl-4-(4-(2-methyl-4-(trifluoromethyl)-1H-imidazol-1-yl)-3′-(methylsulfonyl)biphenyl-3-yl)oxazole]: a half-maximal effect (EC50) was put at 144 nM and the Emax worked out at 87%.

With `Cc1nc(-c2cc(-c3cccc(S(C)(=O)=O)c3)ccc2-n2cc(C(F)(F)F)nc2C)c(-c2ccc(F)c(C#N)c2)o1` [Example 506, 2-fluoro-5-(2-methyl-4-(4-(2-methyl-4-(trifluoromethyl)-1H-imidazol-1-yl)-3′-(methylsulfonyl)biphenyl-3-yl)oxazol-5-yl)benzonitrile], the midpoint of the response, the EC50, lay at 349 nM and the Emax is 77%.

Regarding `Cc1nc(-c2cc(-c3cc(F)c(CO)c(S(C)(=O)=O)c3)ccc2-n2cc(C(F)(F)F)nc2C)c(-c2ccc(Cl)c(Cl)c2)o1` [Example 507, (3′-(5-(3,4-dichlorophenyl)-2-methyloxazol-4-yl)-3-fluoro-4′-(2-methyl-4-(trifluoromethyl)-1H-imidazol-1-yl)-5-(methylsulfonyl)biphenyl-4-yl)methanol], the 50% effective concentration (EC50) amounted to 35 nM and the Emax turned out to be 62%.

For `Cc1nc(-c2cc(-c3cccc(S(C)(=O)=O)c3)ccc2-n2cc(C(F)(F)F)nc2C)c(-c2ccc(Cl)c(Cl)c2)o1` [Example 508, 5-(3,4-dichlorophenyl)-2-methyl-4-(4-(2-methyl-4-(trifluoromethyl)-1H-imidazol-1-yl)-3′-(methylsulfonyl)biphenyl-3-yl)oxazole], a half-maximal response (EC50) required 82 nM and the Emax amounted to 68%.

Turning to `Cc1nc(-c2cc(-c3cc(F)c(CO)c(S(C)(=O)=O)c3)ccc2-n2cc(C(F)(F)F)nc2C)c(-c2ccc(F)c(Cl)c2)o1` [Example 509, (3′-(5-(3-chloro-4-fluorophenyl)-2-methyloxazol-4-yl)-3-fluoro-4′-(2-methyl-4-(trifluoromethyl)-1H-imidazol-1-yl)-5-(methylsulfonyl)biphenyl-4-yl)methanol], the EC50 turned out to be 58 nM and the Emax was determined as 70%.

Regarding `Cc1nc(-c2cc(-c3cccc(S(C)(=O)=O)c3)ccc2-n2cc(C(F)(F)F)nc2C)c(-c2ccc(F)c(Cl)c2)o1` [Example 510, 5-(3-chloro-4-fluorophenyl)-2-methyl-4-(4-(2-methyl-4-(trifluoromethyl)-1H-imidazol-1-yl)-3′-(methylsulfonyl)biphenyl-3-yl)oxazole], the half-maximal effective concentration (EC50) was determined as 61 nM and the Emax was 76%.

As for `Cc1nc(-c2cc(-c3cccc(S(C)(=O)=O)c3)ccc2-n2cc(C(F)(F)F)nc2C)c(-c2ccc(F)c(F)c2)o1` [Example 511, 5-(3,4-difluorophenyl)-2-methyl-4-(4-(2-methyl-4-(trifluoromethyl)-1H-imidazol-1-yl)-3′-(methylsulfonyl)biphenyl-3-yl)oxazole], the EC50 came to 115 nM and the Emax came out at 79%.

Take `Cc1nc(-c2cc(-c3ccc(CO)c(S(C)(=O)=O)c3)ccc2-n2cc(C(F)(F)F)nc2C)c(-c2ccc(F)c(F)c2)o1` [Example 512, (3′-(5-(3,4-difluorophenyl)-2-methyloxazol-4-yl)-4′-(2-methyl-4-(trifluoromethyl)-1H-imidazol-1-yl)-3-(methylsulfonyl)biphenyl-4-yl)methanol]: a half-maximal effect (EC50) was put at 136 nM and the Emax turned out to be 71%.

The values above are taken from patent publication US9834542B2, “LXR modulators” (BRISTOL-MYERS SQUIBB COMPANY, priority 2013, dated 2017).
